Like-named read-outs stand apart in the source and are kept apart here.
Key:
Thoracic aortic rings [1] = test: Thoracic aortic rings assay (Example 19a; IBMX as 100% inhibition); settings: compound at 10 μM, rat thoracic aortic rings contracted with 100 ng/mL phenylephrine; for inhibition at 10 µM: read-out: Percent Relaxation at 10 μM
Experimental: Thoracic aortic rings were dissected from anesthetized (isoflurane) male Sprague-Dawley rats weighing 275-299 g. Tissues were immediately transferred to ice-cold Krebs-Henseleit solution, which had been aerated with 95% O2 and 5% CO2 for 30 minutes. Following removal of connective tissue, aortic sections were cut into 4 rings (˜2 mm each) and suspended on 2 L-shaped hooks, with one hook fixed at the bottom of the tissue bath (Schuler Organ Bath, Harvard Apparatus) and the other connected to a force transducer (F30 Force Transducer, Harvard Apparatus). Baths contained Krebs Henseleit solution (10 mL) heated to 37° C. and aerated with 95% O2 and 5% CO2. Rings were brought to an initial tension of 0.3-0.5 g and gradually raised to a resting tension of 1.0 g over 60 minutes. Rings were rinsed with Krebs Henseleit solution (heated to 37° C. and aerated with 95% O2 and 5% CO2) at 15 minute intervals until a stable baseline was obtained. Rings were considered to be stable after a resting tension of 1.0 g was maintained (for approximately 10 minutes) without need for adjustment. Rings were then contracted with 100 ng/mL phenylephrine by adding 100 uL of a 10 μg/mL phenylephrine stock solution. Tissues achieving a stable contraction were then treated in a cumulative, dose dependent manner with test compounds prepared in dimethylsulfoxide (DMSO). In some cases, tissues were rinsed three times over a 5 minute period with Krebs-Heinseleit's solution (heated to 37° C. and aerated with 95% O2 and 5% CO2), allowed to stabilize at baseline, and then used for characterization of other test articles or DMSO effects. All data were collected using the HSE-ACAD software provided by Harvard Apparatus. […] EC50 values were calculated from concentration-response curves generated with GraphPad Prism Software.

Thoracic aortic rings [2] = test: Alternative thoracic aortic rings assay (Example 19b; resting tension as 100% inhibition); set-up: species or system rat; settings: for inhibition at 1 µM: read-out: Percent Relaxation at 1 μM; for inhibition at 3 µM: read-out: Percent Relaxation at 3 μM; for EC50: read-out: Aortic Ring EC50
In short: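 Aortic rings (~2 mm) from male Sprague-Dawley rats (275-299 g) held at 1.0 g resting tension in Krebs-Henseleit at 37 °C under 95% O2/5% CO2, then precontracted with 100 ng/mL phenylephrine. Compounds in DMSO added cumulatively; relaxation recorded by force transducer and EC50 taken from concentration-response curves.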

[3] = biological target: T1, Human soluble guanylate cyclase enzyme (hsGC) (Homo sapiens (Human), UniProt Q02108+Q02153); test: Purified human sGC enzyme synergy assay in the presence of 1 μM sodium nitroprusside (SNP); type: biochemical; settings: for sGC Enzyme (fold increase at 30 μM with SNP): 30 μM compound; for sGC Enzyme (fold increase at 10 μM with SNP): 10 μM compound
T1 sequence (Q02153 whole entry): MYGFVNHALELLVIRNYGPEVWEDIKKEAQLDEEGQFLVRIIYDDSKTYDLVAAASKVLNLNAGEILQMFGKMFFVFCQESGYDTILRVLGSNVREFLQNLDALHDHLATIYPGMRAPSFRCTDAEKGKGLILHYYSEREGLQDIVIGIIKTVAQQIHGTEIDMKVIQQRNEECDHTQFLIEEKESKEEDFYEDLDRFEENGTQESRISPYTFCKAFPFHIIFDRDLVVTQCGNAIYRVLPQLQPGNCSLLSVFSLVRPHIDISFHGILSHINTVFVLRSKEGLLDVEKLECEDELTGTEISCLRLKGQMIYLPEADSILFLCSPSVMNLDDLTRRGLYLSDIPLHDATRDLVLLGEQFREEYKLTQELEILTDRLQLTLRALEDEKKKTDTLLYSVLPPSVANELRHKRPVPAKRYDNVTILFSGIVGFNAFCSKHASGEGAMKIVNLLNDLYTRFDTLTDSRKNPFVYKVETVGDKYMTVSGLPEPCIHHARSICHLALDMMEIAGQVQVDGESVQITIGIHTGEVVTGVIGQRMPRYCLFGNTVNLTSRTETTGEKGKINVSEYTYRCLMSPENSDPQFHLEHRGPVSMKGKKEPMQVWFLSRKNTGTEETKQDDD
T1 sequence (Q02108 whole entry): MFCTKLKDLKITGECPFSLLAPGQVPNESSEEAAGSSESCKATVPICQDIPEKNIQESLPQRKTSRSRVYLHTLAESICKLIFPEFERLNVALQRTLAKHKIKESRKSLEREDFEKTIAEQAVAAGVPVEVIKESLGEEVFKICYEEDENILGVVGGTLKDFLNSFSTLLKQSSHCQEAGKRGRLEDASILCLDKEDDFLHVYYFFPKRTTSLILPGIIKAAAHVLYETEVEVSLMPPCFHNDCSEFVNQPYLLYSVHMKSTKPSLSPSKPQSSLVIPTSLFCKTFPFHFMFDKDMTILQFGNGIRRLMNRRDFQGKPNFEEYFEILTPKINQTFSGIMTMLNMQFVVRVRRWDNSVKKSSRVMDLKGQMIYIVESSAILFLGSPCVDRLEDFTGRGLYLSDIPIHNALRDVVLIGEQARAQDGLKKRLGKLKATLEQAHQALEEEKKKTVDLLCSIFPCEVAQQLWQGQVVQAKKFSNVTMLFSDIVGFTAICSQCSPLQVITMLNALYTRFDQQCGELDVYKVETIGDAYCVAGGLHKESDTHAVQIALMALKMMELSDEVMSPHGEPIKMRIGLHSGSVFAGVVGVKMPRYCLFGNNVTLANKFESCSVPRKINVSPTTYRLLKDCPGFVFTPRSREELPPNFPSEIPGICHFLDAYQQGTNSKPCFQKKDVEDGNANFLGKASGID
In short: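 Purified human sGC (5 ng) incubated 30 min at 37 °C with compounds at 10 or 30 μM, 1 μM sodium nitroprusside, 300 μM GTP and 1 mM IBMX in Tris pH 8.0 with MgCl2/DTT. cGMP quantified against a standard curve, and specific activity expressed as fold-change over DMSO control.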

[4] = biological target: T2, soluble guanylate cyclase (sGC) (Homo sapiens (Human), UniProt Q02108+Q02153); test: sGC-HEK-cGMP assay run in the absence of SNP (HEK WC assay); type: cell-based; settings: for HEK WC Assay (fold increase at 30 μM in the absence of SNP) / HEK WC Assay (fold increase at 30 μM): compound at 30 μM; for HEK WC Assay (fold increase at 10 μM): compound at 10 μM; for HEK WC Assay (fold increase at 10 μM) / HEK WC Assay (fold increase at 30 μM): no SNP, increase in the sGC receptor activity
T2 sequence (Q02153 whole entry): as the sequence (Q02153 whole entry) above
T2 sequence (Q02108 whole entry): as the sequence (Q02108 whole entry) above
In short: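 HEK293 cells with endogenous sGC, preincubated 15 min at 37° C with 0.5 mM IBMX, then exposed to test compound 10 min at 37° C without SNP. Cells lysed in 0.1 M HCl; cGMP quantified by LC/MS against a standard curve. EC50 from concentration-response curves.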

[5] = biological target: T1, Human soluble guanylate cyclase enzyme (hsGC); test: Purified human sGC enzyme activity assay; type: biochemical; settings: for sGC Enzyme (fold increase at 30 μM) / sGC Enzyme (specific activity at 30 μM) / sGC Enzyme (fold increase at 30 μM without SNP): 30 μM compound; for sGC Enzyme (fold increase at 30 μM): without the addition of SNP; for sGC Enzyme (specific activity at 10 μM) / sGC Enzyme (fold increase at 10 μM without SNP): 10 μM compound
In short: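 Purified human sGC (5 ng) incubated 30 min at 37° C with compound at 10 or 30 μM final in pH 8.0 Tris with 300 μM GTP, 2 mM MgCl2, 2 mM DTT and 1 mM IBMX, then stopped with cold methanol. cGMP quantified against a standard curve. Specific activity (nmol cGMP/mg sGC/min) expressed as fold-change over DMSO control.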

[6] = biological target: T2, soluble guanylate cyclase (sGC); test: sGC-HEK-cGMP assay run with SNP incubation (HEK WC assay); type: cell-based; settings: for HEK WC Assay (fold increase at 30 μM in the presence of 10 μM SNP): compound at 30 μM; for EC50: read-out: HEK WC Assay in the presence of 10 uM SNP EC50, in the presence of 10 uM SNP
In short: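 HEK293 cells with endogenous sGC were pretreated with 0.5 mM IBMX for 15 min at 37 °C, then exposed to test compound plus sodium nitroprusside for 10 min at 37 °C.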

[7] = read-out: HEK WC Assay (% Emax at 10 μM with 10 uM SNP)
[8] = read-out: HEK WC Assay (% Emax at 10 μM/with 10 uM SNP)
[9] = read-out: HEK WC Assay (% Emax at 30 μM with 10 uM SNP)
[10] = read-out: HEK WC Assay (% Emax at 30 μM/with 10 uM SNP)
[11] = read-out: HEK WC Assay (% Emax at 10 uM/with 10 uM SNP)
[12] = read-out: HEK WC Assay (% Emax at 30 uM/with 10 uM SNP)

| sGC Enzyme (fold increase at 10 μM with SNP) ([3]; with 1 μM SNP) | sGC Enzyme (fold increase at 30 μM with SNP) ([3]; with 1 μM SNP) | sGC Enzyme (specific activity at 10 μM) [5] | sGC Enzyme (fold increase at 10 μM without SNP) [5] | sGC Enzyme (specific activity at 30 μM) [5] | sGC Enzyme (fold increase at 30 μM without SNP) [5] | Emax at 10 µM [6, 11] | Emax at 30 µM [6, 12] | SMILES | inhibition at 10 µM (Thoracic aortic rings [1]) | further results |
| --- | --- | --- | --- | --- | --- | --- | --- | --- | --- | --- |
| D (D = equal or >10 fold increase) | D (D = equal or >10 fold increase) | C (C = 100 to <200) | B (B = 2 to <5 fold increase) | D (D = 200 to <500) | C (C = 5 to <10 fold increase) | 20 to 40% | 20 to 40% | Fc1ccccc1Cn1nc(-c2ccccn2)cc1-c1ccco1 [Compound I-61] | 103% |  |
| C (C = 5 to <10 fold increase) | D (D = equal or >10 fold increase) | B (B = 50 to <100) | B (B = 2 to <5 fold increase) | C (C = 100 to <200) | C (C = 5 to <10 fold increase) | 20 to 40% | 20 to 40% | Fc1ccccc1Cn1nc(-c2ncccn2)cc1-c1cccs1 [Compound I-66] | 103% |  |
|  |  | D (D = 200 to <500) | C (C = 5 to <10 fold increase) | E (E = 500 to <1000) | D (D = equal or >10 fold increase) | 20 to 40% | 40 to 60% | Nc1ccnc(-c2cc(-c3ccsc3)n(Cc3ccccc3F)n2)n1 [Compound I-49] | 106% |  |

Further lines, the molecule ahead of its results:

| SMILES | sGC Enzyme (fold increase at 10 μM with SNP) ([3]; with 1 μM SNP) | sGC Enzyme (fold increase at 30 μM with SNP) ([3]; with 1 μM SNP) | sGC Enzyme (specific activity at 10 μM) [5] | sGC Enzyme (fold increase at 10 μM without SNP) [5] | sGC Enzyme (specific activity at 30 μM) [5] | sGC Enzyme (fold increase at 30 μM without SNP) [5] | Emax at 10 µM [6, 11] | Emax at 30 µM [6, 12] | inhibition at 10 µM (Thoracic aortic rings [1]) | further results |
| --- | --- | --- | --- | --- | --- | --- | --- | --- | --- | --- |
| Nc1nc(-c2nn(Cc3ccccc3F)c3ncccc23)ncc1C1CC1 [Reference Compound, BAY 41-2272, reference compound] |  |  |  |  |  |  |  |  |  | Percent Relaxation at 10 μM (Thoracic aortic rings [1]): 100% |
| Nc1nc(-c2cc(-c3ccon3)n(Cc3ccccc3F)n2)ncc1C1(O)CC1 [Compound I-119, I-(4-amino-2-(1-(2-fluorobenzyl)-5-(isoxazol-3-yl)-1H-pyrazol-3-yl)pyrimidin-5-yl)cyclopropanol] |  |  |  |  |  |  |  |  |  | Percent Relaxation at 1 μM (Thoracic aortic rings [2]; Table 10B): C (C = 20 to <40%); Percent Relaxation at 3 μM (Thoracic aortic rings [2]; Table 10B): E (E = 60 or <80%); Percent Relaxation at 10 μM (Thoracic aortic rings [2]; 10 μM, Table 10B): G (G = 100 to <120%); inhibition at 1 µM (Thoracic aortic rings [2]; Rattus norvegicus, Table 10A): 20 to 40%; inhibition at 3 µM (Thoracic aortic rings [2]; Rattus norvegicus, Table 10A): 60 to 80%; inhibition at 10 µM (Thoracic aortic rings [2]; Rattus norvegicus, 10 μM, Table 10A, read-out: Percent Relaxation at 10 μM): 100 to 120%; EC50 (Thoracic aortic rings [2]; Rattus norvegicus, Table 10A): < 2 µM; EC50 (Thoracic aortic rings [2]; Table 10B): < 2 µM; sGC Enzyme (fold increase at 30 μM with SNP) ([3]; with the addition of SNP): D (D = 10 to <30 fold increase); HEK WC Assay (fold increase at 30 μM in the absence of SNP) [4]: C (C = 2 to <5 fold increase); sGC Enzyme (fold increase at 30 μM) [5]: B (B = 2 to <5 fold increase); HEK WC Assay (fold increase at 30 μM in the presence of 10 μM SNP) [6]: E (E = 10 to <20 fold increase); Emax [6, 7]: 100 to 120%; Emax at 10 µM [6, 8]: > 120%; Emax [6, 9]: 100 to 120%; Emax at 30 µM [6, 10]: > 120%; EC50 [6]: < 20 µM |
| Nc1nc(-c2cc(-c3ccon3)n(Cc3ccccc3F)n2)ncc1NC(=O)c1ccccc1 [Compound I-126] |  |  |  |  |  |  |  |  |  | Percent Relaxation at 1 μM (Thoracic aortic rings [2]; Table 10B): F (F = 80 to <100%); Percent Relaxation at 3 μM (Thoracic aortic rings [2]; Table 10B): G (G = 100 to <120%); inhibition at 1 µM (Thoracic aortic rings [2]; Rattus norvegicus, Table 10A): 80 to 100%; inhibition at 3 µM (Thoracic aortic rings [2]; Rattus norvegicus, Table 10A): 100 to 120%; EC50 (Thoracic aortic rings [2]; Rattus norvegicus, Table 10A): < 2 µM; EC50 (Thoracic aortic rings [2]; Table 10B): < 2 µM; sGC Enzyme (fold increase at 30 μM with SNP) ([3]; with the addition of SNP): D (D = 10 to <30 fold increase); HEK WC Assay (fold increase at 30 μM in the absence of SNP) [4]: E (E = 10 to <20 fold increase); sGC Enzyme (fold increase at 30 μM) [5]: D (D = 10 to <30 fold increase); HEK WC Assay (fold increase at 30 μM in the presence of 10 μM SNP) [6]: F (F = 20 to <30 fold increase); Emax [6, 7]: 100 to 120%; Emax at 10 µM [6, 8]: > 120%; Emax [6, 9]: 100 to 120%; Emax at 30 µM [6, 10]: 100 to 120%; EC50 [6]: < 20 µM |
| Fc1ccccc1Cn1nc(-c2ccccn2)cc1-c1nnco1 [Compound I-45] | C (C = 5 to <10 fold increase) | D (D = equal or >10 fold increase) | C (C = 100 to <200) | A (A = no increase to <2 fold increase) | C (C = 100 to <200) | B (B = 2 to <5 fold increase) | 20 to 40% | 20 to 40% | 94.9% |  |
| Fc1ccccc1Cn1nc(-c2ncccn2)cc1-c1ccccc1 [Compound I-2] |  |  | B (B = 50 to <100) | B (B = 2 to <5 fold increase) | A (A = 0 to <50) | B (B = 2 to <5 fold increase) | 10 to 20% | 20 to 40% | 101% | HEK WC Assay (fold increase at 10 μM) [4]: A (A = no increase to <1 fold increase); HEK WC Assay (fold increase at 30 μM) [4]: B (B = 1 to <2 fold increase) |
| Fc1ccccc1Cn1nc(-c2ccccn2)cc1-c1nccs1 [Compound I-27] |  |  | C (C = 100 to <200) | B (B = 2 to <5 fold increase) | D (D = 200 to <500) | B (B = 2 to <5 fold increase) | 20 to 40% | 40 to 60% | 77.2% |  |
| Fc1ccccc1Cn1nc(-c2ccccn2)cc1-c1ccsc1 [Compound I-26] | C (C = 5 to <10 fold increase) | D (D = equal or >10 fold increase) | D (D = 200 to <500) | B (B = 2 to <5 fold increase) | D (D = 200 to <500) | C (C = 5 to <10 fold increase) | 20 to 40% | 40 to 60% | 85.3% |  |
| Fc1ccccc1Cn1nc(-c2ccccn2)cc1-c1ccccn1 [Compound I-1] |  |  | B (B = 50 to <100) | B (B = 2 to <5 fold increase) | C (C = 100 to <200) | C (C = 5 to <10 fold increase) | 0 to 10% | 10 to 20% | 53.7% | HEK WC Assay (fold increase at 10 μM) [4]: A (A = no increase to <1 fold increase); HEK WC Assay (fold increase at 30 μM) [4]: C (C = 2 to <5 fold increase) |

— US10189809B2, “SGC stimulators” (Ironwood Pharmaceuticals, Inc., priority 2010, dated 2019)
